Patent US6855716B2, “Dihydropyrimidine compounds and compositions containing the same” (Ajinomoto Co., Inc., priority 1999, dated 2005)
pIC50: −log10 of the molar value.

What was measured:
[1] = molecular target: T1, N-type calcium channel (Homo sapiens, UniProt Q00975); test: N-type calcium channel antagonistic activity, changed procedure (fluorescence dye method, calculated from inhibition rates); format: cell-based; conditions: IMR-32 cells, 60 mM KCl stimulation, Table 3, read-out: N-type inhibition pIC50 (converted)
T1 sequence (Q00975 whole entry): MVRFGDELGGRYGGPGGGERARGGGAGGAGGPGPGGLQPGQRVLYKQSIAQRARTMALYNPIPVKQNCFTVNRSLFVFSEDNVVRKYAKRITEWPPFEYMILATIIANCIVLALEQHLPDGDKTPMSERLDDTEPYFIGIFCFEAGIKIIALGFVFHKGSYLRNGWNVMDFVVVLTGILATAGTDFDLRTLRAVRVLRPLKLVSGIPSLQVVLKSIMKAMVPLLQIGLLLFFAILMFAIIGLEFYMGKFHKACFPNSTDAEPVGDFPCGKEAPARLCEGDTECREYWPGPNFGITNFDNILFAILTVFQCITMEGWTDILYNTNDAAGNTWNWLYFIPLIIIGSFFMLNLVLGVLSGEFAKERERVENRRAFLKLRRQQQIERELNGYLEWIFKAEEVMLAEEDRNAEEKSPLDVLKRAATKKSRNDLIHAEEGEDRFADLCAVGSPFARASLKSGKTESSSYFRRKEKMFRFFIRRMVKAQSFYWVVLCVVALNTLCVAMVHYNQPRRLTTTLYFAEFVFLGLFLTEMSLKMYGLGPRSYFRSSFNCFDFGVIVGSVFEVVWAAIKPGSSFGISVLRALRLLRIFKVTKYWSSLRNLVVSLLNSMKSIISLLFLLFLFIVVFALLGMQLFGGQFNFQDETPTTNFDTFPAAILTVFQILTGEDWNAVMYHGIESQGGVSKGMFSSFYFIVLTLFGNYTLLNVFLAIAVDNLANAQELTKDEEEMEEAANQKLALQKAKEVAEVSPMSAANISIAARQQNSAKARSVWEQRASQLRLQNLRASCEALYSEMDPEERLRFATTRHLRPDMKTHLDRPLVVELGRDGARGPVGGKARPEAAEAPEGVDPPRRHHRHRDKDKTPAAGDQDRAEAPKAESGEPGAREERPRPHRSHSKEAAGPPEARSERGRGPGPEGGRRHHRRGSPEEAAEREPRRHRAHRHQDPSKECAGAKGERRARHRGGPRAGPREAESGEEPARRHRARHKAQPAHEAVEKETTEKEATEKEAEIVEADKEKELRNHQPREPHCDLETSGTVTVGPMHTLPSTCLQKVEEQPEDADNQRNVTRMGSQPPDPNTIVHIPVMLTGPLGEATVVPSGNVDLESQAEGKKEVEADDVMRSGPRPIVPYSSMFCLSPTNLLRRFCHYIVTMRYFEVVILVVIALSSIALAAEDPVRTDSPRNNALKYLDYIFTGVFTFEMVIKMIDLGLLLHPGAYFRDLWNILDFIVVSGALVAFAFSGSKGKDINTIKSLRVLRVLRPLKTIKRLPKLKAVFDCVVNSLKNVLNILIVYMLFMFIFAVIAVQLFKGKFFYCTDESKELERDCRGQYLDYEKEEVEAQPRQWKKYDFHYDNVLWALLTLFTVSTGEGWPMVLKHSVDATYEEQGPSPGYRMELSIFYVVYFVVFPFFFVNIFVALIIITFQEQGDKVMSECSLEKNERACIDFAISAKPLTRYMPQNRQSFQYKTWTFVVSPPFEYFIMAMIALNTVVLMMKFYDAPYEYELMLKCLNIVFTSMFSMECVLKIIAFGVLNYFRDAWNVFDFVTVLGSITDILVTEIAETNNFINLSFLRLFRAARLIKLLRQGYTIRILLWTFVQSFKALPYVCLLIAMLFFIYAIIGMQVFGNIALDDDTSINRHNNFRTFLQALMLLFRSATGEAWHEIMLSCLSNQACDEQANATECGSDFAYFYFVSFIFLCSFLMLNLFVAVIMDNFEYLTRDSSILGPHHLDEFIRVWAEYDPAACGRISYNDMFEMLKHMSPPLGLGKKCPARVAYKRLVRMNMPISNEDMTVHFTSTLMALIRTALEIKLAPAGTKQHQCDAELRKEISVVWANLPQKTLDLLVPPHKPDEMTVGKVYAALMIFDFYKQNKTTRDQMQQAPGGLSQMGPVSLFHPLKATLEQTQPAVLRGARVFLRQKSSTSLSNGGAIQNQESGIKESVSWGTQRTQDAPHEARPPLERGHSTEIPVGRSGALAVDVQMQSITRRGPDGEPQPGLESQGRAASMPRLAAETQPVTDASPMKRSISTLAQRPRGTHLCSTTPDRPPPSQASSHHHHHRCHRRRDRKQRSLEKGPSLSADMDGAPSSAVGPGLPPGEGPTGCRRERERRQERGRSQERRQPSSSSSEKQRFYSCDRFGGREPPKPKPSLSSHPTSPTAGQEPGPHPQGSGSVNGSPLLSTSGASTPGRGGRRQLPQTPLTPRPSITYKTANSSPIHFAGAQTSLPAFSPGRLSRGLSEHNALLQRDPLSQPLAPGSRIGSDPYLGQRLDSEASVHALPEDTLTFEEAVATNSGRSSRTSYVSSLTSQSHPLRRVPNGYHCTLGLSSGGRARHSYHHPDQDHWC
T1 sequence (P54284 whole entry partner): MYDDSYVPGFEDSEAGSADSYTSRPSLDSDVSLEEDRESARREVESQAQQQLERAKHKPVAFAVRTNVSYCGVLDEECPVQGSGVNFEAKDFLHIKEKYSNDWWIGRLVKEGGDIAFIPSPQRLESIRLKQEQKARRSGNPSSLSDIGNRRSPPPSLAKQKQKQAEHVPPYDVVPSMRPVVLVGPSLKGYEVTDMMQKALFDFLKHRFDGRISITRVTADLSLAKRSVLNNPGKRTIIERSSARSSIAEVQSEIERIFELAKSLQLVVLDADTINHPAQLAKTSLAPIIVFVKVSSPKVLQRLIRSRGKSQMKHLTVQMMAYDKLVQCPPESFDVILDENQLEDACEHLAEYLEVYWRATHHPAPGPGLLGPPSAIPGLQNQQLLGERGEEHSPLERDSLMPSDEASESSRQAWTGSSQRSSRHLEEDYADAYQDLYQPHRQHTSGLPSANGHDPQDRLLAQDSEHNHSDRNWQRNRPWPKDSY
T1 sequence (P54289 25-956 partner limits assumed): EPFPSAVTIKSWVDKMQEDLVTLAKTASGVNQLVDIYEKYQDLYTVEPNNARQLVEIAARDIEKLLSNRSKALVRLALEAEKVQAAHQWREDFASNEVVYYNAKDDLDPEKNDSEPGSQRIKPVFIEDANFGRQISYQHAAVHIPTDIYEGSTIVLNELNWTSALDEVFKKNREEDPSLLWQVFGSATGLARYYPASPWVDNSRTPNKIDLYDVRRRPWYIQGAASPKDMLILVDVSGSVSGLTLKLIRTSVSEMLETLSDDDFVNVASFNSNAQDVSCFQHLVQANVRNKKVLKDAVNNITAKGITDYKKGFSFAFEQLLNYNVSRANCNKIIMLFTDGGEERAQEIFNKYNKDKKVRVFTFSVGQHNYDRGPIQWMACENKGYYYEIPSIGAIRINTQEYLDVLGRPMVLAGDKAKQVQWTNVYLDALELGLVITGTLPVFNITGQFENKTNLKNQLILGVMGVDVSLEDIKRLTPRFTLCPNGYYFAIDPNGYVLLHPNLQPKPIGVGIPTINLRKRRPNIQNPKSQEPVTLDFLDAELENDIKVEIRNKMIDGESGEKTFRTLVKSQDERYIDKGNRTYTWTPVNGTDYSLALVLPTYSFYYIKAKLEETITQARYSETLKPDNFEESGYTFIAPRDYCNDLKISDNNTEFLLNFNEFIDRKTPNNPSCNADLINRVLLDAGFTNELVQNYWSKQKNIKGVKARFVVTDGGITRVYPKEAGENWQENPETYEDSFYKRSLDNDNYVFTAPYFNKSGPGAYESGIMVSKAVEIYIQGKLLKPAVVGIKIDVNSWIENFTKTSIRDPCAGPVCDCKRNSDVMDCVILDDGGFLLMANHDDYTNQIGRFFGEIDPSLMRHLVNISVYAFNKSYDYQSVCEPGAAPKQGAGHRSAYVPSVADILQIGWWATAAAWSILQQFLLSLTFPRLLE
T1 sequence (P54289 957-1103 partner limits assumed): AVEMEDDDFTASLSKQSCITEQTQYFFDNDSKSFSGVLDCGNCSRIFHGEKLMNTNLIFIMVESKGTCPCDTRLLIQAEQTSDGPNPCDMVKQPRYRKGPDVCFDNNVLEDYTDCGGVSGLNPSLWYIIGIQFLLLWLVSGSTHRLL

[2] = molecular target: T1, N-type calcium channel; test: Antagonistic activity on N-type calcium channel (fluorescence dye method); format: cell-based

Row | Compound | IC50 [1] | pIC50 [2]
1 | CC1=C(C(=O)NC/C=C/c2ccccc2)C(c2ccc(Cl)c(Cl)c2)N=C(c2ccccc2)N1 (stereo not shown) [Example 75, 4-(3,4-dichlorophenyl)-6-methyl-2-phenyl-1,4-dihydropyrimidine-5-carboxylic acid (3-phenyl-2-propene-1-yl)amide] | 2000 nM | –
2 | CC1=C(C(=O)NCCC(c2ccccc2)c2ccccc2)C(c2cccc(Cl)c2)NC(=O)N1 (stereo not shown) [Example 3, 4-(3-chlorophenyl)-6-methyl-2-oxo-1,2,3,4-tetrahydropyrimidine-5-carboxylic acid (3,3-diphenylpropyl)amide] | 2510 nM | 6.05
3 | COCC1=C(C(=O)NCCCc2ccccc2)C(c2cccc(Cl)c2)NC(=O)N1 (stereo not shown) [Example 6, 4-(3-chlorophenyl)-6-methoxymethyl-2-oxo-1,2,3,4-tetrahydropyrimidine-5-carboxylic acid (3-phenylpropyl)amide] | 5010 nM | 6.01
4 | O=C(NCCC(c1ccccc1)c1ccccc1)C1=C(COCCC2CCCCC2)NC(c2ccccc2)=NC1c1cccc(Cl)c1 (stereo not shown) [Example 1, 4-(3-chlorophenyl)-6-[(2-cyclohexylethoxy)methyl]-5-(3,3-diphenylpropylcarbamoyl)-2-phenyl-1,4-dihydropyrimidine] | 7940 nM | 5.90
5 | CC1=C(C(=O)NC/C=C/c2ccccc2)C(c2cccc(Cl)c2)N=C(c2ccccc2)N1 (stereo not shown) [Example 68, 4-(3-chlorophenyl)-6-methyl-2-phenyl-1,4-dihydropyrimidine-5-carboxylic acid (3-phenyl-2-propene-1-yl)amide] | 1260 nM | –
6 | CC1=C(C(=O)NCCC(c2ccccc2)c2ccccc2)C(c2cccc(Cl)c2)N=C(c2ccccc2)N1 (stereo not shown) [Example 67, 4-(3-chlorophenyl)-6-methyl-2-phenyl-1,4-dihydro-pyrimidine-5-carboxylic acid (3,3-diphenylpropyl)amide] | 1580 nM | –
7 | [N-]=[N+]=NCCOCC1=C(C(=O)NCCC(c2ccccc2)c2ccccc2)C(c2cccc(Cl)c2)NC(=O)N1 (stereo not shown) [Example 15, 6-(2-azidoethoxymethyl)-4-(3-chlorophenyl)-2-oxo-1,2,3,4-tetrahydropyrimidine-5-carboxylic acid (3,3-diphenylpropyl)amide] | 2510 nM | –
8 | CCOC(=O)CN1C(=O)NC(C)=C(C(=O)NC/C=C/c2ccccc2)C1c1cccc(Cl)c1 (stereo not shown) [Example 45, ethyl [6-(3-chlorophenyl)-4-methyl-2-oxo-5-(3-phenyl-2-propene-1-ylcarbamoyl)-3,6-dihydro-2H-pyrimidine-1-yl]acetate] | 3980 nM | –
9 | O=C(NC/C=C/c1ccccc1)C1=C(COCCC2CCCCC2)NC(c2ccccc2)=NC1c1cccc(Cl)c1 (stereo not shown) [Example 2, 4-(3-chlorophenyl)-6-[(2-cyclohexylethoxy)methyl]-2-phenyl-5-[(3-phenyl-2-propene-1-yl)-carbamoyl]-1,4-dihydropyrimidine] | – | 5.23
10 | CC1=C(C(=O)NCCC(c2ccccc2)c2ccccc2)C(c2ccc(Cl)c(Cl)c2)N=C(c2cccnc2)N1 (stereo not shown) [Example 64, 4-(3,4-dichlorophenyl)-6-methyl-2-pyridine-3-yl-1,4-dihydropyrimidine-5-carboxylic acid (3,3-diphenylpropyl)amide] | 1260 nM | –
